Here are results for 32 compounds from patent US20230104936A1, “TRPML MODULATORS” (Casma Therapeutics, Inc., priority 2019, published 2023).

The first assay relates to TFEB. The experiment in a line: TFEB nuclear translocation assay, HeLa wt cells. The assay is classed as cell-based. The conditions noted are these: 2 hrs compound treatment, Table 1 does not say HeLa wt or TRPML1 KO. In a few lines: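 AC50 derived from the ratio of nuclear to perinuclear ring (−5 μm) anti-TFEB immunofluorescence, imaged at ×20 over four fields per well. HeLa wt or TRPML1 KO cells were exposed to compounds for 2 hrs at 37° C, then PFA-fixed and counterstained with Hoechst.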
`CC(c1cccc(F)c1N1CCC(CN2C[C@@H](C)O[C@@H](C)C2)CC1)S(=O)(=O)c1ccc(S(=O)(=O)C(F)F)cc1` (single isomer, unassigned) [Compound A-808, 4-((1-(2-(1-((4-((difluoromethyl)sulfonyl)phenyl)sulfonyl)ethyl)-6-fluorophenyl)piperidin-4-yl)methyl)-2,6-dimethylmorpholine]: the AC50 was ≤ 2000 nM.
On to `C[C@H](c1cccc(F)c1N1CCC(F)(F)CC1)S(=O)(=O)c1ccc(S(=N)(=O)N(C)C)cc1` (single isomer, unassigned) [Compound A-891], for which the AC50 was ≥ 10000 nM.
As to `CC(c1cccc(F)c1N1CCC(C)(C(F)F)CC1)S(=O)(=O)c1ccc(S(=O)(=O)N(C)C)cc1` (single isomer, unassigned) [Compound A-933, 4-((1-(2-(4-(difluoromethyl)-4-methylpiperidin-1-yl)-3-fluorophenyl)ethyl)sulfonyl)-N,N-dimethylbenzenesulfonamide], the AC50 is ≤ 2000 nM.

The same assay, now with this note: Homo sapiens, HeLa, 2 h, 2 hrs compound treatment, Table 1 does not say HeLa wt or TRPML1 KO.
Regarding `CC(C)(C)C(=O)N1CCN(c2ccccc2NS(=O)(=O)Cc2ccc(Br)cc2F)CC1` [Compound A-488, 1-(4-bromo-2-fluorophenyl)-N-{2-[4-(2,2-dimethylpropanoyl)piperazin-1-yl]phenyl}methanesulfonamide], the AC50 was 8010 to 9990 nM.
`CCOC(=O)c1ccc(S(=O)(=O)Nc2ccccc2N2CCC(c3ccc(Cl)cc3F)CC2)cc1` [Compound A-41, ethyl 4-({2-[4-(4-chloro-2-fluorophenyl)piperidin-1-yl]phenyl}sulfamoyl)benzoate]: the AC50 was ≥ 10000 nM.
The compound `COCC1(C)CCN(c2ccccc2NS(=O)(=O)c2ccc3c(c2)COC3(C)C)CC1` [Compound A-682, N-{2-[4-(methoxymethyl)-4-methylpiperidin-1-yl]phenyl}-1,1-dimethyl-1,3-dihydro-2-benzofuran-5-sulfonamide] registered an AC50 of 2010 to 8000 nM.
The same measure, in the same setting: for `CC1(C)CC2(CCN(c3ccccc3NS(=O)(=O)C3(c4ccccc4)CC3)CC2)CO1` [Compound A-717, N-(2-{3,3-dimethyl-2-oxa-8-azaspiro[4.5]decan-8-yl}phenyl)-1-phenylcyclopropane-1-sulfonamide] the value was 2010 to 8000 nM.
On to `CN(C)S(=O)(=O)c1ccc(S(=O)(=O)Nc2ccccc2N2CCN(C3CCCOC3)CC2)cc1` (centres unmarked) [Compound A-450, N1,N1-dimethyl-N4-{2-[4-(oxan-3-yl)piperazin-1-yl]phenyl}benzene-1,4-disulfonamide], for which the AC50 fell in the range of 8010 to 9990 nM.
On the same count and under the same terms, next, `CN(C)S(=O)(=O)c1ccc(S(=O)(=O)Cc2ccccc2N2CCC(c3c(F)cccc3F)CC2)cc1` [Compound A-229, 4-((2-(4-(2,6-difluorophenyl)piperidin-1-yl)benzyl)sulfonyl)-N,N-dimethylbenzenesulfonamide]: ≤ 2000 nM.
With `CC(C)S(=N)(=O)c1ccc(S(=O)(=O)[C@H](C)c2cccc(F)c2N2CCCCC2)cc1` (single isomer, unassigned) [Compound A-923], the AC50 was ≥ 10000 nM.
As for `CC(C)(C)C(=O)N1CCN(c2ccccc2NS(=O)(=O)C2(c3ccccc3)CC2)CC1` [Compound A-564, N-{2-[4-(2,2-dimethylpropanoyl)piperazin-1-yl]phenyl}-1-phenylcyclopropane-1-sulfonamide], the AC50 was ≤ 2000 nM.
With `Cc1nn(S(=O)(=O)c2ccc(S(=O)(=O)N(C)C)cc2)cc1C1=CCN(c2ccc(Cl)cc2F)CC1` [Compound A-37, 4-({4-[1-(4-chloro-2-fluorophenyl)-1,2,3,6-tetrahydropyridin-4-yl]-3-methyl-1H-pyrazol-1-yl}sulfonyl)-N,N-dimethylbenzene-1-sulfonamide], the AC50 lay in the range of 2010 to 8000 nM.
For `CN1C(=O)c2cc(F)ccc2C12CCN(c1ccccc1NS(=O)(=O)c1ccc(S(=O)(=O)N(C)C)cc1)CC2` [Compound A-301, N4-(2-{5-fluoro-2-methyl-3-oxo-2,3-dihydrospiro[isoindole-1,4′-piperidin]-1′-yl}phenyl)-N1,N1-dimethylbenzene-1,4-disulfonamide], the AC50 was ≤ 2000 nM.
Take `CN1CC2(CCN(c3ccccc3NS(=O)(=O)c3ccc(S(=O)(=O)N(C)C)cc3)CC2)c2ncc(Cl)cc21` [Compound A-268, N4-(2-{6′-chloro-1′-methyl-1′,2′-dihydrospiro[piperidine-4,3′-pyrrolo[3,2-b]pyridin]-1-yl}phenyl)-N1,N1-dimethylbenzene-1,4-disulfonamide]: the AC50 was ≤ 2000 nM.
In the case of `CN(C)S(=O)(=O)c1ccc(S(=O)(=O)Nc2ccccc2N2CCC3(CC2)COc2cc(F)ccc23)cc1` [Compound A-253, N4-(2-{6-fluoro-2H-spiro[1-benzofuran-3,4′-piperidin]-1′-yl}phenyl)-N1,N1-dimethylbenzene-1,4-disulfonamide], the AC50 is ≤ 2000 nM.
Same read-out and setting: next, `CC(c1cccc(F)c1N1CCCCC1)[S+]([O-])c1ccc(S(=O)(=O)C(F)F)cc1` (centres unmarked) [Compound A-972, 1-{2-[1-(4-difluoromethanesulfonylbenzenesulfinyl)ethyl]-6-fluorophenyl}piperidine]: 2010 to 8000 nM; `CC(C)(C)C(=O)N1CCN(c2ccccc2NS(=O)(=O)c2ccc(OCC(F)(F)F)cc2)CC1` [Compound A-591, N-{2-[4-(2,2-dimethylpropanoyl)piperazin-1-yl]phenyl}-4-(2,2,2-trifluoroethoxy)benzene-1-sulfonamide]: ≥ 10000 nM; `CN(C)S(=O)(=O)c1ccc(S(=O)(=O)Nc2ccccc2N2CCN(C(=O)[C@@]34CCC[C@@H]3C4)CC2)cc1` (racemic) [Compound A-477, rac-N4-(2-{4-[(1R,5R)-bicyclo[3.1.0]hexane-1-carbonyl]piperazin-1-yl}phenyl)-N1,N1-dimethylbenzene-1,4-disulfonamide]: 2010 to 8000 nM.
`O=S(=O)(Nc1cccc(Cl)c1N1CCOCC1)c1ccc(S(=O)(=O)C(F)F)cc1` [Compound A-274, N-[3-chloro-2-(morpholin-4-yl)phenyl]-4-difluoromethanesulfonylbenzene-1-sulfonamide]: the AC50 was ≥ 10000 nM.
In the case of `CN1CC2(CCN(c3ccccc3NS(=O)(=O)c3ccc(S(=O)(=O)N(C)C)cc3)CC2)c2ncccc21` [Compound A-271, N1,N1-dimethyl-N4-(2-{1′-methyl-1′,2′-dihydrospiro[piperidine-4,3′-pyrrolo(3,2-b]pyridin]-1-yl}phenyl)benzene-1,4-disulfonamide], the AC50 was ≤ 2000 nM.
In the case of `COCC1(C)CCN(c2cc(F)ccc2NS(=O)(=O)c2ccc(S(=O)(=O)N(C)C)cc2)CC1` [Compound A-694, N4-{4-fluoro-2-[4-(methoxymethyl)-4-methylpiperidin-1-yl]phenyl}-N1,N1-dimethylbenzene-1,4-disulfonamide], the AC50 is ≤ 2000 nM.
Take `Cc1ccc(N2CCOCC2)c(NS(=O)(=O)Cc2ccccc2)c1` [Compound A-628, N-[5-methyl-2-(morpholin-4-yl)phenyl]-1-phenylmethanesulfonamide]: the AC50 fell in the range of 2010 to 8000 nM.
Consider `COCC1(C)CCN(c2ccccc2NS(=O)(=O)c2ccc(C(C)(C)C)cc2)CC1` [Compound A-483, 4-tert-butyl-N-{2-[4-(methoxymethyl)-4-methylpiperidin-1-yl]phenyl}benzene-1-sulfonamide], for which the AC50 is ≤ 2000 nM.
Take `CC1(C)CC2(CCN(c3ccccc3NS(=O)(=O)Cc3cccc(F)c3)CC2)CO1` [Compound A-668, N-(2-{3,3-dimethyl-2-oxa-8-azaspiro[4.5]decan-8-yl}phenyl)-1-(3-fluorophenyl)methanesulfonamide]: the AC50 lay within 2010 to 8000 nM.
Regarding `O=C(c1ccc(S(=O)(=O)Nc2ccccc2N2CCC(c3ccc(Cl)cc3F)CC2)cc1)N1CCCC1` [Compound A-49, N-{2-[4-(4-chloro-2-fluorophenyl)piperidin-1-yl]phenyl}-4-(pyrrolidine-1-carbonyl)benzene-1-sulfonamide], the AC50 was ≥ 10000 nM.
Consider `CN(C)S(=O)(=O)c1ccc(S(=O)(=O)Nc2ccccc2N2CC(O)(c3ccc(Cl)cc3F)C2)cc1` [Compound A-162, N4-{2-[3-(4-chloro-2-fluorophenyl)-3-hydroxyazetidin-1-yl]phenyl}-N1,N1-dimethylbenzene-1,4-disulfonamide], for which the AC50 lay in the range of 2010 to 8000 nM.
On to `Cc1ccc(S(=O)(=O)Nc2ccccc2N2CCC(c3ccc(Cl)cn3)CC2)cc1` [Compound A-103, N-{2-[4-(5-chloropyridin-2-yl)piperidin-1-yl]phenyl}-4-methylbenzene-1-sulfonamide], for which the AC50 was ≤ 2000 nM.
Take `CN(C)S(=O)(=O)c1ccc(S(=O)(=O)Nc2ccccc2N2CCCC23CCCOC3)cc1` (centres unmarked) [Compound A-499, N1,N1-dimethyl-N4-(2-{7-oxa-1-azaspiro[4.5]decan-1-yl}phenyl)benzene-1,4-disulfonamide]: the AC50 was ≤ 2000 nM.
As for `CN(C)S(=O)(=O)c1ccc(S(=O)(=O)Nc2ccccc2N2CCC(F)(COC(F)(F)F)CC2)cc1` [Compound A-798, N4-(2-{4-fluoro-4-[(trifluoromethoxy)methyl]piperidin-1-yl}phenyl)-N1,N1-dimethylbenzene-1,4-disulfonamide], the AC50 is ≤ 2000 nM.
As to `Cc1ccc(CS(=O)(=O)Nc2ccccc2N2CCN(C(=O)C(C)(C)C)CC2)cc1C` [Compound A-486, 1-(3,4-dimethylphenyl)-N-{2-[4-(2,2-dimethylpropanoyl)piperazin-1-yl]phenyl}methanesulfonamide], the AC50 lay within 2010 to 8000 nM.
Still for that read-out and setting: next, `CC(c1cccnc1N1CCC(CN2CCC(F)(F)CC2)CC1)S(=O)(=O)c1ccc(S(=O)(=O)N(C)C)cc1` (centres unmarked) [Compound A-987, 4-[1-(2-{4-[(4,4-difluoropiperidin-1-yl)methyl]piperidin-1-yl}pyridin-3-yl)ethanesulfonyl]-N,N-dimethylbenzene-1-sulfonamide]: ≤ 2000 nM.
On the same count and under the same terms, for `CN(C)S(=O)(=O)c1ccc(S(=O)(=O)Nc2ccccc2N2CCC(COC(F)(F)CF)CC2)cc1` [Compound A-797, N1,N1-dimethyl-N4-(2-{4-[(1,1,2-trifluoroethoxy)methyl]piperidin-1-yl}phenyl)benzene-1,4-disulfonamide] the value was ≤ 2000 nM.
